Here are results for 44 molecules from ChEMBL document CHEMBL4477234, “Potent Suppressive Effects of 1-Piperidinylimidazole Based Novel P2X7 Receptor Antagonists on Cancer Cell Migration and Invasion” (J Med Chem, 2016).

The target of test [1] is T1, P2X purinoceptor 7 (Homo sapiens, UniProt Q99572).
T1 sequence (Q99572 whole entry): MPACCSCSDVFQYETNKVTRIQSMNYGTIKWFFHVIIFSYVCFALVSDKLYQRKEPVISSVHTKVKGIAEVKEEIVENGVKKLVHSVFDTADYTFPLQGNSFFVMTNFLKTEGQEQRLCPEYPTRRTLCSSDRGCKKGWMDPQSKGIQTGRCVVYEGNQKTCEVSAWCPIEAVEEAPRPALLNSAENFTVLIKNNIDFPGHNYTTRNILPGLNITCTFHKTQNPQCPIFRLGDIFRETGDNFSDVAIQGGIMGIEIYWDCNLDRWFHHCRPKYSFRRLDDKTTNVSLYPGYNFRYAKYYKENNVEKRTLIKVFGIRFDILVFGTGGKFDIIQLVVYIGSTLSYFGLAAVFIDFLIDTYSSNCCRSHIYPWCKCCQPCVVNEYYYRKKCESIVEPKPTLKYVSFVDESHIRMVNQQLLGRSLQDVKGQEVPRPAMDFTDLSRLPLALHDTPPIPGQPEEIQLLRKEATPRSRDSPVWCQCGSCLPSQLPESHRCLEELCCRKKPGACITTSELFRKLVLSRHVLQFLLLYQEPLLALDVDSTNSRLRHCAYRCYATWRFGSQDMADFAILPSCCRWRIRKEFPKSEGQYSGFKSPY
The test can be described thus: Antagonist activity at human P2X7 receptor expressed in HEK293 cells assessed as inhibition of BzATP-induced EtBr uptake measured after 2 hrs by fluorescence analysis. In kind it is cell-based.

Test [2] concerns the target T1, P2X purinoceptor 7. Briefly: Antagonist activity at human P2X7 receptor in LPS/IFN-gamma-differentiated human THP-1 cells assessed as suppression of BzATP-stimulated IL-1beta release per-incubated for 30 mins before BzATP addition and measured after 30 mins by ELISA. In kind it is cell-based. A general note: An ELISA detects its analyte on a solid surface through an enzyme-linked reagent.

A value given as a limit tells only on which side of the number the result lay.

Consider `O=C(Oc1ccc(-c2cncn2C2CCN(C(=O)c3ccc(Cl)c(C(F)(F)F)c3)CC2)cc1)c1cccs1`, for which the IC50 in test [1] is > 10000 nM.

Regarding `CNC(=O)c1cccc(S(=O)(=O)Oc2ccc(-c3cncn3C3CCN(C(=O)c4ccc([N+](=O)[O-])cc4)CC3)cc2)c1`, the IC50 turned out to be 62 nM in test [1] and 26 nM in test [2].

On to `COc1ccc(C(=O)N2CCC(n3cncc3-c3ccc(OS(=O)(=O)c4cccc(C#N)c4)cc3)CC2)cc1`, for which the IC50 in test [1] amounted to 312 nM.

For `O=C(NC1CC1)c1cccc(S(=O)(=O)Oc2ccc(-c3cncn3C3CCN(C(=O)c4ccc([N+](=O)[O-])cc4)CC3)cc2)c1`, in test [1], the IC50 came to 152 nM.

In the case of `CCN(CC)c1ccc(C(=O)N2CCC(n3cncc3-c3ccc(OS(=O)(=O)c4cccc5cnccc45)cc3)CC2)cc1`, the IC50 in test [1] is 1440 nM.

As to `CC(C)(O)c1ccc(C(=O)N2CCC(n3cncc3-c3ccc(OS(=O)(=O)c4cccc5cnccc45)cc3)CC2)cc1`, the values for the IC50 in test [1] and in test [2] were 109 nM and 4.7 nM, respectively.

For the molecule `COc1ccc(C(=O)N2CCC(n3cncc3-c3ccc(OS(=O)(=O)c4cccc(C(=O)NC5CC5)c4)cc3)CC2)cc1`, in test [1], the IC50 came to 244 nM.

As to `O=C(c1ccc(Cl)c(C(F)(F)F)c1)N1CCC(n2cncc2-c2ccc(OS(=O)(=O)c3ccccc3)cc2)CC1`, in test [1], the IC50 was 702 nM.

As to `N#Cc1ccc(C(=O)N2CCC(n3cncc3-c3ccc(OS(=O)(=O)c4cccc5cnccc45)cc3)CC2)cc1`, the IC50 in test [1] came to 269 nM.

For `CN(C)c1ccc(C(=O)N2CCC(c3nc4cc(OS(=O)(=O)c5cccc6cnccc56)ccc4[nH]3)CC2)cc1`, the results for the IC50 in test [1] and in test [2] were 41 nM and 121 nM, respectively.

Take `CNC(=O)c1cccc(S(=O)(=O)Oc2ccc(-c3cncn3C3CCN(C(=O)c4ccc(N(C)C)cc4)CC3)cc2)c1`: the IC50 in test [1] stood at 25 nM; in test [2], 22 nM.

For `O=C(c1ccc(Cl)c(C(F)(F)F)c1)N1CCC(c2nc3cc(OS(=O)(=O)c4cccc5cnccc45)ccc3[nH]2)CC1`, the values for the IC50 in test [1] and in test [2] were 31 nM and 210 nM, respectively.

With `CS(=O)(=O)c1ccc(C(=O)N2CCN(c3cc(=O)[nH]c(=O)n3Cc3ccc(OS(=O)(=O)c4cccc5cnccc45)cc3)CC2)cc1`, the IC50 in test [1] worked out at 44 nM; in test [2], 50 nM.

As to `O=C(c1ccc([N+](=O)[O-])cc1)N1CCC(c2nc3cc(OS(=O)(=O)c4cccc5cnccc45)ccc3[nH]2)CC1`, the IC50 in test [1] was 13 nM; in test [2], 17 nM.

On to `CS(=O)(=O)c1ccc(C(=O)N2CCC(n3cncc3-c3ccc(OS(=O)(=O)c4cccc(C(=O)NC5CC5)c4)cc3)CC2)cc1`, for which the IC50 in test [1] stood at 400 nM.

In the case of `CN(C)c1cccc(C(=O)N2CCC(n3cncc3-c3ccc(OS(=O)(=O)c4cccc5cnccc45)cc3)CC2)c1`, the IC50 in test [1] is 155 nM.

As for `O=C(Oc1ccc(-c2cncn2C2CCN(C(=O)c3ccc(Cl)c(C(F)(F)F)c3)CC2)cc1)c1cccc2cnccc12`, in test [1], the IC50 was > 10000 nM.

With `CNC(=O)c1cccc(S(=O)(=O)Oc2ccc(-c3cncn3C3CCN(C(=O)c4ccc(OC)cc4)CC3)cc2)c1`, the IC50 in test [1] amounted to 159 nM.

Consider `O=C(c1ccc(Oc2ccccc2)cc1)N1CCC(n2cncc2-c2ccc(OS(=O)(=O)c3cccc4cnccc34)cc2)CC1`, for which the IC50 in test [1] is 187 nM.

For `O=C(c1ccc(Cl)c(C(F)(F)F)c1)N1CCC(n2ccc3cc(OS(=O)(=O)c4cccc5cnccc45)ccc32)CC1`, the IC50 in test [1] stood at 430 nM; in test [2], 552 nM.

Regarding `CNC(=O)c1cccc(S(=O)(=O)Oc2ccc(-c3cncn3C3CCN(C(=O)c4ccc(S(C)(=O)=O)cc4)CC3)cc2)c1`, in test [1], the IC50 stood at 202 nM.

For `CN(C)c1ccc(C(=O)N2CCC(n3cncc3-c3ccc(OS(=O)(=O)c4cccc(C#N)c4)cc3)CC2)cc1`, the IC50 in test [1] came out at 32 nM; in test [2], 10 nM.

`O=C(c1ccc([N+](=O)[O-])cc1)N1CCN(c2cc(=O)[nH]c(=O)n2Cc2ccc(OS(=O)(=O)c3cccc4cnccc34)cc2)CC1`: the results for the IC50 in test [1] and in test [2] were 27 nM and 32 nM, respectively.

For the molecule `O=C(Oc1ccc(-c2cncn2C2CCN(C(=O)c3ccc(Cl)c(C(F)(F)F)c3)CC2)cc1)c1ccccc1`, the IC50 in test [1] was > 10000 nM.

In the case of `O=C(c1ccc(Cl)c(C(F)(F)F)c1)N1CCC(n2cncc2-c2ccc(OS(=O)(=O)c3cccs3)cc2)CC1`, the IC50 in test [1] came out at 238 nM.

On to `CCN(CC)C(=O)c1cccc(S(=O)(=O)Oc2ccc(-c3cncn3C3CCN(C(=O)c4ccc(Cl)c(C(F)(F)F)c4)CC3)cc2)c1`, for which, in test [1], the IC50 was 202 nM.

As for `N#Cc1cccc(S(=O)(=O)Oc2ccc(-c3cncn3C3CCN(C(=O)c4ccc(Cl)c(C(F)(F)F)c4)CC3)cc2)c1`, the values for the IC50 in test [1] and in test [2] were 73 nM and 4.28 nM, respectively.

Take `COc1ccc(C(=O)N2CCC(n3cncc3-c3ccc(OS(=O)(=O)c4cccc5cnccc45)cc3)CC2)cc1OC`: the IC50 in test [1] was 259 nM.

`CS(=O)(=O)c1ccc(C(=O)N2CCC(n3cncc3-c3ccc(OS(=O)(=O)c4cccc(C#N)c4)cc3)CC2)cc1`: the IC50 in test [1] is 143 nM.

`CC(C)c1ccc(C(=O)N2CCC(n3cncc3-c3ccc(OS(=O)(=O)c4cccc5cnccc45)cc3)CC2)cc1`: the IC50 in test [1] amounted to 55 nM; in test [2], 37 nM.

As for `CS(=O)(=O)Oc1ccc(-c2cncn2C2CCN(C(=O)c3ccc(Cl)c(C(F)(F)F)c3)CC2)cc1`, in test [1], the IC50 was 1570 nM.

As to `CC(=O)Oc1ccc(-c2cncn2C2CCN(C(=O)c3ccc(Cl)c(C(F)(F)F)c3)CC2)cc1`, the IC50 in test [1] was > 10000 nM.

On to `CNC(=O)c1cccc(S(=O)(=O)Oc2ccc(-c3cncn3C3CCN(C(=O)c4ccc(Cl)c(C(F)(F)F)c4)CC3)cc2)c1`, for which the IC50 in test [1] was 112 nM; in test [2], 1.76 nM.

As for `O=C(c1ccc(Cl)c(C(F)(F)F)c1)N1CCC(n2cncc2-c2ccc(OS(=O)(=O)c3cccc(Br)c3)cc2)CC1`, in test [1], the IC50 was found to be 896 nM.

For the molecule `O=C(c1ccc(Cl)c(C(F)(F)F)c1)N1CCC(n2cncc2-c2ccc(OS(=O)(=O)c3cccc4ccccc34)cc2)CC1`, the IC50 in test [1] came to 3520 nM.

For the molecule `COc1ccc(C(=O)N2CCC(n3cncc3-c3ccc(OS(=O)(=O)c4cccc5cnccc45)cc3)CC2)cc1`, the IC50 in test [1] was found to be 77 nM; in test [2] it was 64 nM.

As to `O=C(NC1CC1)c1cccc(S(=O)(=O)Oc2ccc(-c3cncn3C3CCN(C(=O)c4ccc(Cl)c(C(F)(F)F)c4)CC3)cc2)c1`, the figures for the 50% inhibitory concentration (IC50) in test [1] and in test [2] were 88 nM and 58 nM, respectively.

On to `Nc1cccc(S(=O)(=O)Oc2ccc(-c3cncn3C3CCN(C(=O)c4ccc(Cl)c(C(F)(F)F)c4)CC3)cc2)c1`, for which the IC50 in test [1] was found to be 565 nM.

`O=C(c1ccc(Cl)c(C(F)(F)F)c1)N1CCC(n2cncc2-c2ccc(OS(=O)(=O)c3cccc4cnccc34)cc2)CC1`: the IC50 came out at 45 nM in test [1] and 22 nM in test [2].

As to `O=C(c1ccc(Cl)c(C(F)(F)F)c1)N1CCN(c2cc(=O)[nH]c(=O)n2Cc2ccc(OS(=O)(=O)c3cccc4cnccc34)cc2)CC1`, the IC50 turned out to be 40 nM in test [1] and 18 nM in test [2].

Take `CS(=O)(=O)c1ccc(C(=O)N2CCC(n3cncc3-c3ccc(OS(=O)(=O)c4cccc5cnccc45)cc3)CC2)cc1`: the values for the concentration for half-maximal inhibition (IC50) in test [1] and in test [2] were 25 nM and 0.32 nM, respectively.

On to `O=C(c1ccc(Cl)c(C(F)(F)F)c1)N1CCC(n2cncc2-c2ccc(OS(=O)(=O)c3cccc([N+](=O)[O-])c3)cc2)CC1`, for which, in test [1], the IC50 is 249 nM.

As to `N#Cc1cccc(S(=O)(=O)Oc2ccc(-c3cncn3C3CCN(C(=O)c4ccc([N+](=O)[O-])cc4)CC3)cc2)c1`, the IC50 worked out at 45 nM in test [1] and 13 nM in test [2].

Regarding `O=C(c1ccc([N+](=O)[O-])cc1)N1CCC(n2cncc2-c2ccc(OS(=O)(=O)c3cccc4cnccc34)cc2)CC1`, the IC50 in test [1] was 1.49 nM; in test [2], 8.29 nM.

A word on the IC50: it is the point on the concentration scale where inhibition reaches its midpoint.
